In US8901307B2, “Chemical compounds 251” (AstraZeneca AB, priority 2008, dated 2014):
Structures can show the parent of a compound that is named as a salt.

Key:
human His-PIM2 [23-299] = biological target: T1, human His-PIM2 [23-299] (Homo sapiens, UniProt Q9P1W9); test: PIM2 in-vitro mobility shift assay (Caliper LC3000, FL-Ahx-Bad phosphorylation); format: biochemical; conditions: 1.5 h; percent inhibition at 0.3 uM compound; read-out: PIM2 % I at 0.3 uM
T1 construct: purified human His-PIM2 [23-299] enzyme; His (N); host or cells: E. coli
T1 sequence (Q9P1W9 23-299): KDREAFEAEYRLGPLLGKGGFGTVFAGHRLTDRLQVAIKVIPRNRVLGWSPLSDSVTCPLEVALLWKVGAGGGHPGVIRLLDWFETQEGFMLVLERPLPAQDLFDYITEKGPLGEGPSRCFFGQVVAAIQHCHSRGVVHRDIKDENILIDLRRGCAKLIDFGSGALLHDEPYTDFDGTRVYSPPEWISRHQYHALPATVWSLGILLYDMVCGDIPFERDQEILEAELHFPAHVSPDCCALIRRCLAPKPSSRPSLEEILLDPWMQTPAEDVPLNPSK
Description: PIM2 In-Vitro Mobility Shift Assay
(§1) One may determine the activity of purified human His-PIM2 [23-299] enzyme in-vitro using a mobility shift assay on a Caliper LC3000 reader (Caliper, Mass.), which measures fluorescence of a phosphorylated and unphosphorylated FL-Ahx-Bad (FITC-(AHX)RSRHSSYPAGT-COOH, Primm 200606-00289, Primm Biotech, Mass.) and calculates a ratiometric value to determine percent turnover. One may express PIM2 (produced at AstraZeneca, R&D Boston) in E. coli cells with a typical yield of >90% purity.
One determines phosphorylation of the FL-Ahx-Bad in the presence and absence of the compound of interest. One preincubates 5 uL of Enzyme/Substrate/adenosine triphosphate (ATP) mix consisting of 2.4 nM […], 3.6 uM FL-Ahx-Bad, and 12 uM ATP in 1.2× buffer with 2 ul of compound for 20 minutes at 25° C. One initiates reactions with 5 uL of Metal mix consisting of 24 mM MgCl2 in 1.2× buffer and incubates at 25° C. for 90 minutes. One stops reactions by addition of 5 uL of Stop mix consisting of 100 mM HEPES, 121 mM ethylenediamine tetraacetic acid, 0.8% Coatin Reagent 3 (Caliper, Mass.), and 0.01% Tween. One detects phosphorylated and unphosphorylated substrate by a Caliper LC3000 reader (Caliper, Mass.) in the presence of separation buffer consisting of 100 mM HEPES, 16 mM ethylenediamine tetraacetic acid, 0.1% Coatin Reagent 3 (Caliper, Mass.), 0.015% Brij-35, 5% DMSO, and 5.6 mM MgCl2. One may use the following separation conditions for a Caliper LC3000: −1.0 PSI, −2000 V upstream voltage, −400 V downstream voltage, 0.2 second sample sip, 45 second post sip, 10% laser strength.

human His-PIM1 [2-313] = biological target: T2, human His-PIM1 [2-313] (Homo sapiens, UniProt P11309); test: PIM1 in-vitro mobility shift assay (Caliper LC3000, FL-Ahx-Bad phosphorylation); format: biochemical; conditions: 1.5 h; percent inhibition at 0.3 uM compound; read-out: PIM1 % I at 0.3 uM
T2 construct: purified human His-PIM1 [2-313] enzyme; His (N); purchased University of Dundee, Scotland; host or cells: baculovirus system
T2 sequence (P11309 2-313): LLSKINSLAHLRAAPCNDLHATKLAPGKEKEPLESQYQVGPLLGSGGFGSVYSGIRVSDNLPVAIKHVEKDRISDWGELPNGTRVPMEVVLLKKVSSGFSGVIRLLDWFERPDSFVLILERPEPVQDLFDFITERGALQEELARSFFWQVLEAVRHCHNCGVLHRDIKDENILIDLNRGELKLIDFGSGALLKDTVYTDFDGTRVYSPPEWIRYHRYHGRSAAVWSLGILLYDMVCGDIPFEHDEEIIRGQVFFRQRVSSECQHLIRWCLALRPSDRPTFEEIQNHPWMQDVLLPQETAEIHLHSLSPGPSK
Description: PIM1 In-Vitro Mobility Shift Assay
as §1, with “His-PIM1 [2-313]” for “His-PIM2 [23-299]”, “PIM1 (University of Dundee, Scotland)” for “PIM2 (produced at AstraZeneca, R&D Boston)”, “baculovirus system” for “E. coli cells”, “>85%” for “>90%”
One determines phosphorylation of the FL-Ahx-Bad in the presence and absence of the compound of interest. One preincubates 5 µl of Enzyme/Substrate/adenosine triphosphate (ATP) mix consisting of 2.4 nM PIM1, 3.6 uM FL-Ahx-Bad, and 240 uM ATP in 1.2× buffer with 2 ul of compound for 20 minutes at 25° C. One initiates reactions with 5 ul of Metal mix consisting of 24 mM MgCl2 in 1.2× buffer and incubated at 25° C. for 90 minutes and stops the reactions by addition of 5 ul of Stop mix consisting of 100 mM HEPES, 121 mM ethylenediamine tetraacetic acid, 0.8% Coatin Reagent 3 (Caliper, Mass.), and 0.01% Tween. One detects phosphorylated and unphosphorylated substrate by a Caliper LC3000 reader (Caliper, Mass.) in the presence of separation buffer consisting of 100 mM HEPES, 16 mM ethylenediamine tetraacetic acid, 0.1% Coatin Reagent 3 (Caliper, Mass.), 0.015% Brij-35, 5% DMSO, and 5.6 mM MgCl2. One may use the following separation conditions for a Caliper LC3000: −1.0 PSI, −2000 V upstream voltage, −400 V downstream voltage, 0.2 second sample sip, 45 second post sip, 10% laser strength.
The table 1 below provides the percent inhibition of PIM1 at 0.3 micromolar for Examples provided herein. Several examples were tested more than once. Variations in the experimental outcomes, negative values, or values over 100% inhibition are presumably due to experimental error inherent in the assay.

SMILES | inhibition at 0.3 µM (human His-PIM2 [23-299]) [%] | inhibition at 0.3 µM (human His-PIM1 [2-313]) [%]
O=C1NC(=O)/C(=C/c2cc(C(F)(F)F)cc(Cl)c2N2CCN(Cc3ccncc3)CC2)S1 [Example 17] | < 5 | 29.8
O=C1NC(=O)/C(=C/c2cc(C(F)(F)F)cc(Cl)c2N2CCN(Cc3ccccc3Cl)CC2)S1 [Example 18] | < 5 | < 5
CN1CCC(N2CCN(c3c(Cl)cc(C(F)(F)F)cc3/C=C3\SC(=O)NC3=O)CC2)CC1 [Example 19] | 38.3 | > 95
O=C1NC(=O)/C(=C/c2cc(C(F)(F)F)cc(Cl)c2N2CCN(CCN3CCOCC3)CC2)S1 [Example 20] | 19.1 | 86.5
O=C1NC(=O)/C(=C/c2cc(C(F)(F)F)cc(Cl)c2N2CCN(CC3CC3)CC2)S1 [Example 21] | 15.8 | 82.9
O=C1NC(=O)/C(=C/c2cc(C(F)(F)F)cc(Cl)c2N2CCC(N3CCOCC3)CC2)S1 [Example 22] | 8.5 | 81.9
O=C1NC(=O)/C(=C/c2cc(C(F)(F)F)cc(Cl)c2N2CCN(CCCO)CC2)S1 [Example 23] | 19.7 | 87.6
CN(C)C1CCN(c2c(Cl)cc(C(F)(F)F)cc2/C=C2\SC(=O)NC2=O)CC1 [Example 24] | 44.3 | > 95
CN(C)CCCN(C)c1c(Cl)cc(C(F)(F)F)cc1/C=C1\SC(=O)NC1=O [Example 25] | 68.4 | > 95
O=C1NC(=O)/C(=C/c2cc(C(F)(F)F)cc(Cl)c2N2CCCN(CCO)CC2)S1 [Example 26] | 49.6 | > 95
CCCCN1CCCN(c2c(Cl)cc(C(F)(F)F)cc2/C=C2\SC(=O)NC2=O)CC1 [Example 27] | 25.1 | 90.8
O=C1NC(=O)/C(=C/c2cc(C(F)(F)F)cc(Cl)c2N2CCN(CCO)CC2)S1 [Example 28] | 27.4 | 90
O=C1NC(=O)/C(=C/c2cc(C(F)(F)F)cc(Cl)c2N2CCOCC2)S1 [Example 29] | – | 92.8
CC(C)(C)N1CCN(c2c(Cl)cc(C(F)(F)F)cc2/C=C2\SC(=O)NC2=O)CC1 [Example 30] | 15.6 | 90.8
O=C1NC(=O)/C(=C/c2cc(C(F)(F)F)cc(Cl)c2N2CCC(N3CCCCC3)CC2)S1 [Example 31] | 23.3 | 92.8
CN1CCN(c2c(Cl)cc(C(F)(F)F)cc2/C=C2\SC(=O)NC2=O)CC1 [Example 32] | 31.9 | 94
O=C1NC(=O)/C(=C/c2cnc3[nH]ccc3c2)S1 [Example 80, (5Z)-5-(1H-pyrrolo[2,3-b]pyridin-5-ylmethylene)-1,3-thiazolidine-2,4-dione] | – | < 5
CN(C)CCCOc1ccccc1/C=C1\SC(=O)NC1=O [Example 81, (5Z)-5-{2-[3-(dimethylamino)propoxy]benzylidene}-1,3-thiazolidine-2,4-dione] | – | < 5
O=C1NC(=O)/C(=C/c2cccc(N3CCOCC3)c2)S1 [Example 83, (5Z)-5-(3-morpholin-4-ylbenzylidene)-1,3-thiazolidine-2,4-dione trifluoroacetate] | – | 34
